Measured values taken from US20260199484A1, “PROTAC DEGRADERS OF MLLT1 AND/OR MLLT3” (DARK BLUE THERAPEUTICS LTD, priority 2024, published 2026).

Experiments:
[1] = tested on: MV4-11 cells; assay: MV4-11 cellular proliferative assay, Assay Format B (CTG 2.0, 168 h); assay type: cell-based; conditions: Homo sapiens, Assay format B, 168 h, read-out: IC50 (MV4-11 cellular proliferative assay)
Method: MV4-11 cells at a confluency of ~50-80% was used for cell growth assay. 600 cells/well in a 384-well opaque cell culture plate (6007680; Perkin Elmer) were seeded in 40 μL of complete medium (IMDM+10% FBS+1× Penicillin-Streptomycin). Cells were incubated overnight at 37° C., 5% CO2. 10 mM DMSO stocks were prepared, cells were treated with 10 concentrations of test compounds starting from 1 uM or 100 nM, 3-fold dilution in 10 uL (5× concentration) of complete medium. Final DMSO concentration was 0.3%. Culture plates were centrifuged at 40×g, 30s. Cells were incubated with compounds for 168 h (7 days). After 7 days, 20 uL CTG 2.0 reagent (G9242; Promega) was added per well and luminescence reading was taken in Envision Xcite 2105 multimode plate reader. Data was analyzed in GraphPad Prism 10.0 and data was shown as % viability with respect to DMSO control and dose-response curves were generated using four parameter logistic regression. Assay quality was determined by z-factor calculation using positive and negative controls.

[2] = biological target: T1, MLLT1 (Homo sapiens, UniProt Q03111); assay: MLLT1 degradation assay in MV4-11 cells (JESS, 24 h); assay type: cell-based; set-up: endogenous in cells; host or cells: MV4-11 (ATCC CRL-9591); conditions: vs DMSO control
T1 sequence (Q03111 1-559): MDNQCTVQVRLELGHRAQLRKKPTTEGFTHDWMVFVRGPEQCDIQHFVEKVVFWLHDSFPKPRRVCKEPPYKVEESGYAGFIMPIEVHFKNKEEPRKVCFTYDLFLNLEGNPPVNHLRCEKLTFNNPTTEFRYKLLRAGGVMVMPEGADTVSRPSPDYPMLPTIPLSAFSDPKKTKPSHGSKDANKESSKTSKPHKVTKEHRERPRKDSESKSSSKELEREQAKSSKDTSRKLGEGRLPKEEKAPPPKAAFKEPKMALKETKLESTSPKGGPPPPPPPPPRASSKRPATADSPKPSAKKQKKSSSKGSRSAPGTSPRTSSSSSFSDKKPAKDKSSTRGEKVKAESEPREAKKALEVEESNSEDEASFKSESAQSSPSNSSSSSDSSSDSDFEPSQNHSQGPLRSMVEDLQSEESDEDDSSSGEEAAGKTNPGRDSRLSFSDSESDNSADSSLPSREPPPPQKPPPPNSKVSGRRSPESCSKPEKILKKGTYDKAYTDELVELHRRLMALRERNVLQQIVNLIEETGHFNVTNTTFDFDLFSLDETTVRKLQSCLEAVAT
Outline: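 MV4-11 cells treated at 1000, 100 and 10 nM (0.1% DMSO) for 24 h at 37° C; lysates (4 ug protein) run on JESS capillary immunoassay with MLLT1 and GAPDH antibodies. Peak areas give % degradation versus DMSO, binned A (≥75%) to D (<25%).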

Row | Structure (SMILES) | IC50 [1] [nM] | MLLT1% Degradation @ 0.01 μM [2] | MLLT1% Degradation @ 0.1 μM [2] | MLLT1% Degradation @ 1 μM [2]
1 | Cc1nn(CCCCCCCC=C(Cl)c2ccc3c(c2)n(C)c(=O)n3C2CCC(=O)NC2=O)c2cc(C(=O)Nc3cc4[nH]c([C@H]5CCCN5C)cc4cn3)ccc12 (mixture of isomers) [Example 40] | < 100 | A (Category A: A≥75% degradation) | A (Category A: A≥75% degradation) | A (Category A: A≥75% degradation)
2 | Cc1nn(CCCCCCCC#Cc2cccc3c2CN([C@H]2CCC(=O)NC2=O)C3=O)c2cc(C(=O)Nc3cc4[nH]c([C@H]5CCCN5C)cc4cn3)ccc12 (relative stereo) [Example 98, 1-(9-(2-((rel-S)-2,6-dioxopiperidin-3-yl)-1-oxoisoindolin-4-yl)non-8-yn-1-yl)-3-methyl-N-(2-((R)-1-methylpyrrolidin-2-yl)-1H-pyrrolo[3,2-c]pyridin-6-yl)-1H-indazole-6-carboxamide] | < 100 | A (Category A: A≥75% degradation) | A (Category A: A≥75% degradation) | A (Category A: A≥75% degradation)
3 | Cc1nn(CCCCCCCC#Cc2cccc3c2CN([C@@H]2CCC(=O)NC2=O)C3=O)c2cc(C(=O)Nc3cc4[nH]c([C@H]5CCCN5C)cc4cn3)ccc12 (relative stereo) [Example 99, 1-(9-(2-((rel-R)-2,6-dioxopiperidin-3-yl)-1-oxoisoindolin-4-yl)non-8-yn-1-yl)-3-methyl-N-(2-((R)-1-methylpyrrolidin-2-yl)-1H-pyrrolo[3,2-c]pyridin-6-yl)-1H-indazole-6-carboxamide] | < 100 | A (Category A: A≥75% degradation) | A (Category A: A≥75% degradation) | A (Category A: A≥75% degradation)
4 | Cc1nn(CCCCCCCC#Cc2cccc3c2CN([C@@H]2CCC(=O)NC2=O)C3=O)c2cc(C(=O)Nc3cc4[nH]c([C@H]5CCCN5C)c(Cl)c4cn3)ccc12 (relative stereo) [Example 101, N-(3-chloro-2-((R)-1-methylpyrrolidin-2-yl)-1H-pyrrolo[3,2-c]pyridin-6-yl)-1-(9-(2-((rel-R)-2,6-dioxopiperidin-3-yl)-1-oxoisoindolin-4-yl)non-8-yn-1-yl)-3-methyl-1H-indazole-6-carboxamide] | < 100 |  |  | 
5 | Cc1nn(CCCCCCCC#Cc2cccc3c2CN([C@H]2CCC(=O)NC2=O)C3=O)c2cc(C(=O)Nc3cc4[nH]c([C@H]5CCCN5C)cc4cn3)c(F)cc12 (relative stereo) [Example 102, 1-(9-(2-((rel-S)-2,6-dioxopiperidin-3-yl)-1-oxoisoindolin-4-yl)non-8-yn-1-yl)-5-fluoro-3-methyl-N-(2-((R)-1-methylpyrrolidin-2-yl)-1H-pyrrolo[3,2-c]pyridin-6-yl)-1H-indazole-6-carboxamide] | < 100 | A (Category A: A≥75% degradation) | A (Category A: A≥75% degradation) | A (Category A: A≥75% degradation)
6 | Cc1nn(CCCCCCCC#Cc2cccc3c2CN([C@@H]2CCC(=O)NC2=O)C3=O)c2cc(C(=O)Nc3cc4[nH]c([C@H]5CCCN5C)cc4cn3)c(F)cc12 (relative stereo) [Example 103, 1-(9-(2-((rel-R)-2,6-dioxopiperidin-3-yl)-1-oxoisoindolin-4-yl)non-8-yn-1-yl)-5-fluoro-3-methyl-N-(2-((R)-1-methylpyrrolidin-2-yl)-1H-pyrrolo[3,2-c]pyridin-6-yl)-1H-indazole-6-carboxamide] | < 100 | A (Category A: A≥75% degradation) | A (Category A: A≥75% degradation) | A (Category A: A≥75% degradation)
7 | Cc1nn(CC2CCN(c3cccc4c3CN(C3CCC(=O)NC3=O)C4=O)CC2)c2cc(C(=O)Nc3cc4[nH]c([C@H]5CCCN5C)cc4cn3)ccc12 (stereo in doubt) [Example 107, 1-((1-(2-((rel-S)-2,6-dioxopiperidin-3-yl)-1-oxoisoindolin-4-yl)piperidin-4-yl)methyl)-3-methyl-N-(2-((R)-1-methylpyrrolidin-2-yl)-1H-pyrrolo[3,2-c]pyridin-6-yl)-1H-indazole-6-carboxamide] | < 100 | A (Category A: A≥75% degradation) | A (Category A: A≥75% degradation) | A (Category A: A≥75% degradation)
8 | Cc1nn(CCCCCCCC#Cc2ccc3c(c2)n(C)c(=O)n3C2CCC(=O)NC2=O)c2cc(C(=O)Nc3cc4[nH]c([C@H]5CCCN5C)cc4cn3)ccc12 (stereo partly drawn) [Example 39, 1-(9-(1-(2,6-dioxopiperidin-3-yl)-3-methyl-2-oxo-2,3-dihydro-1H-benzo[d]imidazol-5-yl)non-8-yn-1-yl)-3-methyl-N-(2-((R)-1-methylpyrrolidin-2-yl)-1H-pyrrolo[3,2-c]pyridin-6-yl)-1H-indazole-6-carboxamide] | < 100 | A (Category A: A≥75% degradation) | A (Category A: A≥75% degradation) | A (Category A: A≥75% degradation)
9 | Cc1nn(CCCCCCCC#Cc2ccc(F)c3c2CN(C2CCC(=O)NC2=O)C3=O)c2cc(C(=O)Nc3cc4[nH]c([C@H]5CCCN5C)cc4cn3)ccc12 (stereo partly drawn) [Example 52, 1-(9-(2-(2,6-dioxopiperidin-3-yl)-7-fluoro-1-oxoisoindolin-4-yl)non-8-yn-1-yl)-3-methyl-N-(2-((R)-1-methylpyrrolidin-2-yl)-1H-pyrrolo[3,2-c]pyridin-6-yl)-1H-indazole-6-carboxamide] | < 100 | A (Category A: A≥75% degradation) | A (Category A: A≥75% degradation) | A (Category A: A≥75% degradation)
10 | Cc1nn(CCCCCCCC#Cc2cccc3c2CN(C2CCC(=O)NC2=O)C3=O)c2cc(C(=O)Nc3cc4[nH]c([C@H]5CCCN5C)c(Cl)c4cn3)ccc12 (stereo partly drawn) [Example 53, N-(3-chloro-2-((R)-1-methylpyrrolidin-2-yl)-1H-pyrrolo[3,2-c]pyridin-6-yl)-1-(9-(2-(2,6-dioxopiperidin-3-yl)-1-oxoisoindolin-4-yl)non-8-yn-1-yl)-3-methyl-1H-indazole-6-carboxamide] | < 100 | A (Category A: A≥75% degradation) | A (Category A: A≥75% degradation) | A (Category A: A≥75% degradation)
11 | Cc1nn(CCCCCCCCC#Cc2cccc3c2CN(C2CCC(=O)NC2=O)C3=O)c2cc(C(=O)Nc3cc4[nH]c([C@H]5CCCN5C)cc4cn3)ccc12 (stereo partly drawn) [Example 54, 1-(10-(2-(2,6-dioxopiperidin-3-yl)-1-oxoisoindolin-4-yl)dec-9-yn-1-yl)-3-methyl-N-(2-((R)-1-methylpyrrolidin-2-yl)-1H-pyrrolo[3,2-c]pyridin-6-yl)-1H-indazole-6-carboxamide] | < 100 | A (Category A: A≥75% degradation) | A (Category A: A≥75% degradation) | A (Category A: A≥75% degradation)
12 | CN1CCC[C@@H]1c1cc2cnc(NC(=O)c3ccc4cnn(CCCCCCCC#Cc5cccc6c5CN(C5CCC(=O)NC5=O)C6=O)c4c3)cc2[nH]1 (stereo partly drawn) [Example 55, 1-(9-(2-(2,6-dioxopiperidin-3-yl)-1-oxoisoindolin-4-yl)non-8-yn-1-yl)-N-(2-((R)-1-methylpyrrolidin-2-yl)-1H-pyrrol[3,2-c]pyridin-6-yl)-1H-indazole-6-carboxamide] | < 100 | B (Category B: 50%≤B<75% degradation) | A (Category A: A≥75% degradation) | A (Category A: A≥75% degradation)
